We go through four molecules from patent US20260027190A1, “OVARIAN TUMOR DEUBIQUITINASE OXIDATION AND USES THEREOF” (The University of Vermont and State Agricultural College, priority 2022, published 2026).

Experiment [1] relates to mouse tracheal epithelial (MTE) cells. As to the kind of experiment: Total GSH measurement (DTNB assay) in MTE cells. Type of experiment: cell-based. The method, then:
It has been previously shown that the pleotropic cytokine IL1B augments glycolysis in lung epithelial cells, and that interleukin 1B (IL1B) is linked to oxidative stress. The pentose phosphate pathway, an offshoot of glycolysis, regulates the redox environment by providing nicotinamide adenine dinucleotide phosphate (NADPH) reducing equivalents necessary for glutathione (GSH) homeostasis. The effects of GSH in response to IL1B were examined. Briefly, GSH was measured using a 5,5′-dithio-bis (2-nitrobenzoic acid) (DTNB) assay in both control and IL1B-stimulated mouse tracheal epithelial cells. […] Statistics on the left panel represent the total GSH levels, without differentiating between labeled and unlabeled portions of GSH (P-value*<0.05, ****<0.0001).
(§1) A regulator of GSH homeostasis is the transporter system xC-, which exports glutamate and concomitantly imports cystine in a 1:1 ratio. Once inside the cells, cystine is reduced to two cysteines, the latter being the rate limiting amino acid required for GSH synthesis. These relationships were examined further. […] To address whether IL1B-induced increases in GSH are system xC- dependent, two system xC- inhibitors, erastin (Er) and sulfasalazine (SAS) were used. Cells were pretreated for one hour, followed by IL1B treatment for 24 hours. Then, GSH levels were measured in cells exposed to increasing doses of Er or SAS (FIG. 2G). Extracellular glutamate levels in cell culture supernatant of cells pretreated with 0.5 micromolar Er (left) or 100 micromolar SAS (right) for 1 hour before IL1B stimulation were also measured (FIG. 2H). […] System xC- inhibition is known to induce ferroptosis, an iron-dependent mode of cell death characterized by increased lipid peroxidation. However, no changes in cell viability using erastin (5 micromolar) or sulfasalazine (500 micromolar) were detected (FIG. 2I; P-value*<0.05, ***<0.001, ****<0.0001).
(§2) Primary mouse tracheal epithelial (MTE) cells were isolated from C57BL/6NJ wild-type or C57BL6/NJ mice lacking Glrx1 gene and cultured. Cells were grown on collagen coated plastic plates or transwell inserts with media change every 2 days until confluency. For interleukin 1B (IL1B) treatment: cells were incubated in plain Dulbecco's Modified Eagle Medium (DMEM): F12 media containing 6 mM glucose and 2 mM glutamine overnight followed by stimulation with 10 ng/ml IL1B or 0.1% bovine serum albumin (BSA) in phosphate buffered saline (PBS) (vehicle control) for 24 hours. Treatment with crastin, sulfasalazine or BSO occurred 1 hour before IL1B stimulation. Media and cells were collected for further analysis. For growing H522 and OTUB1-CRISPR-H522 cells: Roswell Park Memorial Institute (RPMI) media supplemented with 10% fetal bovine serum (FBS) and 1% pen/strep was used to grow the cells. Plasmid over-expression and OTUB1 knock-down experiments were done when cells were 60-70% confluent.
Cell lysates were prepared in 100 mM potassium phosphate buffer containing 0.6% sulfosalicylic acid, 1 mM ethylenediaminetetraacetic acid (EDTA) and 0.01% triton-x-100. To measure total glutathione (GSH), equal amounts of proteins were incubated with 3 micromolar 5,5′-dithio-bis (2-nitrobenzoic acid) (DTNB) reagent and 2.25 microgram/ml glutathione reductase followed by the addition of 240 micromolar Nicotinamide adenine dinucleotide phosphate (NADPH). Kinetic absorbance was measured every minute at 412 nm for 20 minutes. […]

The test system of the next experiment is SLC7A11. As to the kind of experiment: SLC7A11 non-reducing Western blot in MTE cells. It is filed as cell-based, mouse. The settings on record: MG132 5 micrograms/ml, 24 hours. The method, then:
OTUB1 was previously shown to interfere with ubiquitination and subsequent proteasomal degradation of SLC7A11. A SLC7A11 non-reducing Western blot using MTE cells pretreated with 5 micrograms/ml MG132 or 10 ng/ml IL1B for 24 hours with ACTB used as a loading control was performed (FIG. 7A). In addition, an assessment of GSH levels in MG132-(5 micrograms/ml, 24 hours) (FIG. 7B, left) or bortezomib-(FIG. 7B, right) (0.3 micromolar, 24 hours) treated MTE cells was undertaken (P-value***<0.001, ****<0.0001). Extracellular glutamate levels in MG132-treated MTE cells were also assessed (5 micrograms/ml, 24 hours) (FIG. 7C) (P-value***<0.001, ****<0.0001). The proteasome inhibitors MG132 or bortezomib increased SCL7A11, GSH and extracellular glutamate levels in tracheal epithelial cells (FIGS. 7A-7C), identifying the importance of proteasomal degradation of SLC7A11 in regulating system xC- and glutathione levels.
Bio-Rad DC protein estimation kit was used to determine protein concentration in cell lysates. Equal amounts of proteins were resolved using sodium dodecyl sulfate (SDS)-polyacrylamide gel electrophoresis and transferred to polyvinylidene difluoride (PVDF) membranes, blocked in 5% BSA and incubated with primary antibodies overnight. Membranes were subsequently incubated with peroxidase-conjugated secondary antibodies for one hour and then visualized using chemiluminescence.

For experiment [2], the system named is mouse tracheal epithelial (MTE) cells. As to the kind of experiment: Extracellular glutamate in cell culture supernatant of MTE cells. It is filed as cell-based.
From the text: as §1, §2
Glutamate in media was measured using Biovision kit following manufacturer's protocol.

For experiment [3] the test system is unchanged. As to the kind of experiment: Calcein AM cell viability in MTE cells. Type of experiment: cell-based. The settings on record: sulfasalazine 500 micromolar.
From the text: Invitrogen Live/Dead viability/cytotoxicity kit was used to measure cell viability according to manufacturer's instruction. Data was expressed as percentage survival compared to control untreated cells.
The test system of the next experiment is OTUB1. As to the kind of experiment: OTUB1-SSG: GSH immunoprecipitation followed by OTUB1 Western blot. Particulars: cells treated with recombinant protein. It is filed as cell-based, mouse. The procedure: (§3) OTUB1 was one of the PSSG targets detected in IL1B-stimulated epithelial cells raising the possibility that S-glutathionylation of OTUB1 affects the stability of SLC7A11. To investigate this, immunoprecipitation of GSH followed by Western Blotting of OTUB1 in MTE cells treated with vehicle or IL1B was performed. Dithiothreitol (DTT) was incubated with cell lysates prior to immunoprecipitation as a negative control. OTUB1 levels from whole cell lysates were used as the input control. Increases in OTUB1 S-glutathionylation (OTUB1-SSG) in response to IL1B were observed, with further increases occurring in cells lacking Glrx (FIG. 4G), consistent with the role of GLRX as a deglutathionylating enzyme. Western blots were performed using cells treated with the WT- or C23S-mutant GLRX recombinant protein to examine the presence of glutaredoxin (FIG. 4H) and total PSSG (FIG. 4I) (P-value*<0.05, **<0.01, ***<0.001, ****<0.0001). GAPDH was used as a loading control. Glutathione was evaluated in MTE cells treated with recombinant WT- or C23S-mutant GLRX (FIG. 4J) and glutamate in cell culture supernatant of MTE cells treated with WT or the C23S mutant GLRX was also evaluated (FIG. 4K). […]
On the technique in general: Immunoblotting shows a protein as a band on a membrane.

Experiment [4] relates to mouse tracheal epithelial (MTE) cells. As to the kind of experiment: Total PSSG in MTE cells treated with recombinant GLRX. Type of experiment: cell-based. The settings on record: direct administration of recombinant protein to MTE cells. The procedure: as §3, with “GAPDH was used as a loading control.” left out
Cell lysates were prepared in 100 mM potassium phosphate buffer containing 0.6% sulfosalicylic acid, 1 mM ethylenediaminetetraacetic acid (EDTA) and 0.01% triton-x-100. […] Kinetic absorbance was measured every minute at 412 nm for 20 minutes. […]

Where [5] appears, read: MG132 5 micrograms/ml, 24 hours, MTE cells.
Where [6] appears, read: direct administration of recombinant protein to MTE cells.

Residues, ends and D or L forms follow the SMILES beside them. *: point of attachment. Cbz = O=C(OCc1ccccc1)*

Take `CC(C)C[C@@H](C=O)NC(=O)[C@H](CC(C)C)NC(=O)[C@H](CC(C)C)NC(=O)OCc1ccccc1` [MG132] (Cbz-Leu-Leu-Leu-aldehyde): the GSH levels entry in experiment [1] (setting [5]) was “increased”. Further, the SLC7A11 levels result with SLC7A11 is “increased”. Moreover, the extracellular glutamate levels result in experiment [2] (setting [5]) was “increased”.
As for `CC(C)C[C@H](NC(=O)[C@H](Cc1ccccc1)NC(=O)c1cnccn1)B(O)O` [bortezomib], in experiment [1] (bortezomib 0.3 micromolar, 24 hours, MTE cells), the GSH levels result was “increased”.
Regarding `O=C(O)c1cc(/N=N/c2ccc(S(=O)(=O)Nc3ccccn3)cc2)ccc1O` [sulfasalazine], the cell viability entry in experiment [3] was “no changes”. Further, the “IL1B-induced increases in GSH” value in experiment [1] (MTE cells pretreated 1 hour with increasing doses of Er or SAS, then IL1B 24 hours) is recorded as “significantly decreased”. Also, the “IL1B-induced extracellular glutamate levels” value in experiment [2] (MTE cells pretreated with 100 micromolar SAS for 1 hour before IL1B stimulation) is reported as “significantly decreased”.

B1: C23S GLRX: catalytically inactive C23S mutant GLRX recombinant protein (protein, UniProt P35754 2-106, looked up, variant C23S)
Glutaredoxin-1: AQEFVNCKIQPGKVVVFIKPTSPYCRRAQEILSQLPIKQGLLEFVDITATNHTNEIQDYLQQLTGARTVPRVFIGKDCIGGCSDLVSLQQSGELLTRLKQIGALQ
As to B1, the “OTUB1-SSG (OTUB1 S-glutathionylation)” value in the experiment with OTUB1 is listed as “not”. The GSH levels result in experiment [1] (setting [6]) was “did not elicit these effects”. Moreover, the “overall PSSG” value in experiment [4] is listed as “did not elicit these effects”. The extracellular glutamate entry in experiment [2] (setting [6]) is given as “did not elicit these effects”.
